# Where two headings read alike, the source gives them in different places.
# What was measured:
# Format in all cases: cell-based
# S. aureus = assay: agar dilution test, S. aureus; settings: Staphylococcus aureus, complete growth inhibition, read-out: Minimum Inhibitory Concentration, Sa
# Description: (§1) In representative operations, the products of the invention when tested for antimicrobial activity using conventional agar dilution tests gave complete growth inhibition against the following organisms at the indicated concentrations in parts per million: […]
# S. typhosa = assay: agar dilution test, S. typhosa; settings: read-out: Minimum Inhibitory Concentration, St
# Description: as §1
# A. aerogenes = assay: agar dilution test, A. aerogenes; settings: Klebsiella aerogenes, read-out: Minimum Inhibitory Concentration, Aa
# Description: as §1
# P. aeruginosa = assay: agar dilution test, P. aeruginosa; settings: Pseudomonas aeruginosa, read-out: Minimum Inhibitory Concentration, Pa
# Description: as §1
# C. pelliculosa = assay: agar dilution test, C. pelliculosa; settings: Hansenula anomala, read-out: Minimum Inhibitory Concentration, Cp
# Description: as §1
# S. cerevisiae = assay: agar dilution test, S. cerevisiae; settings: Saccharomyces cerevisiae, read-out: Minimum Inhibitory Concentration, Sc
# Description: as §1
# A. niger = assay: agar dilution test, A. niger; settings: Aspergillus niger, read-out: Minimum Inhibitory Concentration, An
# Description: as §1
# P. chrysogenum = assay: agar dilution test, P. chrysogenum; settings: Penicillium chrysogenum, read-out: Minimum Inhibitory Concentration, Pen
# Description: as §1
# [1] = A. aerogenes, agar dilution, complete growth inhibition
# [2] = P. aeruginosa, agar dilution, complete growth inhibition
# [3] = C. pelliculosa, agar dilution, complete growth inhibition
# [4] = S. cerevisiae, agar dilution, complete growth inhibition
# [5] = A. niger, agar dilution, complete growth inhibition
# [6] = P. chrysogenum, agar dilution, complete growth inhibition
smiles,measurement,setting,value
"Cl/C=C\C[N+]12CN3CN(CN(C3)C1)C2.[Cl-] [Cis, cis-1-(3-chloro-2-propenyl)-3,5,7-triaza-1-azoniatricyclo (3,3,1,1^3,7) decane chloride, reference compound]",MIC,S. aureus,50 µg/mL
same,MIC,"S. typhosa; S. typhosa, agar dilution, complete growth inhibition",25 µg/mL
same,MIC,A. aerogenes,50 µg/mL
same,MIC,P. aeruginosa,75 µg/mL
same,MIC,C. pelliculosa,500 µg/mL
same,MIC,S. cerevisiae,250 µg/mL
same,MIC,A. niger,> 500 µg/mL
same,MIC,P. chrysogenum,500 µg/mL
"O=C(Nc1ccccc1)N1CN2CN(C/C=C\Cl)CN(C2)C1 [Example 1, N-Phenyl-3-Carboxamide-7-Cis(3-Chloro-2-Propenyl)-1,3,5,7-Tetraazabicyclo(3,3,1)Nonane]",MIC,S. aureus,50 µg/mL
same,MIC,S. typhosa,25 µg/mL
same,MIC,A. aerogenes; [1],50 µg/mL
same,MIC,P. aeruginosa; [2],50 µg/mL
same,MIC,C. pelliculosa; [3],250 µg/mL
same,MIC,S. cerevisiae; [4],250 µg/mL
same,MIC,A. niger; [5],500 µg/mL
same,MIC,P. chrysogenum; [6],250 µg/mL
"S=C(Nc1ccccc1)N1CN2CN(C/C=C\Cl)CN(C2)C1 [Example 2, N-Phenyl-3-.[.Thiocarboxamide.]..Iadd.Methanethioamide.Iaddend.-7-Cis-(3-Chloro-2-Propenyl)-1,3,5,7-Tetraazabicyclo(3,3,1)Nonane]",MIC,S. aureus,75 µg/mL
same,MIC,S. typhosa,25 µg/mL
same,MIC,A. aerogenes; [1],50 µg/mL
same,MIC,P. aeruginosa; [2],75 µg/mL
same,MIC,C. pelliculosa; [3],> 500 µg/mL
same,MIC,S. cerevisiae; [4],250 µg/mL
same,MIC,A. niger; [5],250 µg/mL
same,MIC,P. chrysogenum; [6],500 µg/mL
COc1ccc(NC(=O)N2CN3CN(C/C=C\Cl)CN(C3)C2)cc1 [Example 3 a)],MIC,S. aureus,50 µg/mL
same,MIC,S. typhosa,10 µg/mL
same,MIC,A. aerogenes; [1],75 µg/mL
same,MIC,P. aeruginosa; [2],75 µg/mL
same,MIC,C. pelliculosa; [3],250 µg/mL
same,MIC,S. cerevisiae; [4],250 µg/mL
same,MIC,A. niger; [5],500 µg/mL
same,MIC,P. chrysogenum; [6],250 µg/mL
Cc1ccc(NC(=O)N2CN3CN(C/C=C\Cl)CN(C3)C2)cc1 [Example 3 b)],MIC,S. aureus,50 µg/mL
same,MIC,S. typhosa,25 µg/mL
same,MIC,A. aerogenes; [1],50 µg/mL
same,MIC,P. aeruginosa; [2],50 µg/mL
same,MIC,C. pelliculosa; [3],250 µg/mL
same,MIC,S. cerevisiae; [4],250 µg/mL
same,MIC,A. niger; [5],250 µg/mL
same,MIC,P. chrysogenum; [6],100 µg/mL
Cc1ccc(C)c(NC(=O)N2CN3CN(C/C=C\Cl)CN(C3)C2)c1 [Example 3 c)],MIC,S. aureus,75 µg/mL
same,MIC,S. typhosa,50 µg/mL
same,MIC,A. aerogenes; [1],75 µg/mL
same,MIC,P. aeruginosa; [2],75 µg/mL
same,MIC,C. pelliculosa; [3],250 µg/mL
same,MIC,S. cerevisiae; [4],250 µg/mL
same,MIC,A. niger; [5],500 µg/mL
same,MIC,P. chrysogenum; [6],250 µg/mL
O=C(Nc1ccc(Cl)cc1)N1CN2CN(C/C=C\Cl)CN(C2)C1 [Example 3 d)],MIC,S. aureus,75 µg/mL
same,MIC,S. typhosa,25 µg/mL
same,MIC,A. aerogenes; [1],75 µg/mL
same,MIC,P. aeruginosa; [2],100 µg/mL
same,MIC,C. pelliculosa; [3],250 µg/mL
same,MIC,S. cerevisiae; [4],250 µg/mL
same,MIC,A. niger; [5],500 µg/mL
same,MIC,P. chrysogenum; [6],250 µg/mL
O=C(Nc1ccc(Br)cc1)N1CN2CN(C/C=C\Cl)CN(C2)C1 [Example 3 e)],MIC,S. aureus,100 µg/mL
same,MIC,S. typhosa,25 µg/mL
same,MIC,A. aerogenes; [1],100 µg/mL
same,MIC,P. aeruginosa; [2],250 µg/mL
same,MIC,C. pelliculosa; [3],250 µg/mL
same,MIC,S. cerevisiae; [4],250 µg/mL
same,MIC,A. niger; [5],500 µg/mL
same,MIC,P. chrysogenum; [6],250 µg/mL
O=C(Nc1cc(Cl)ccc1Cl)N1CN2CN(C/C=C\Cl)CN(C2)C1 [Example 3 f)],MIC,S. aureus,75 µg/mL
same,MIC,S. typhosa,50 µg/mL
same,MIC,A. aerogenes; [1],75 µg/mL
same,MIC,P. aeruginosa; [2],100 µg/mL
same,MIC,C. pelliculosa; [3],250 µg/mL
same,MIC,S. cerevisiae; [4],250 µg/mL
same,MIC,A. niger; [5],500 µg/mL
same,MIC,P. chrysogenum; [6],250 µg/mL
O=C(Nc1ccc(Cl)c(Cl)c1)N1CN2CN(C/C=C\Cl)CN(C2)C1 [Example 3 g)],MIC,S. aureus,50 µg/mL
same,MIC,S. typhosa,25 µg/mL
same,MIC,A. aerogenes; [1],250 µg/mL
same,MIC,P. aeruginosa; [2],250 µg/mL
same,MIC,C. pelliculosa; [3],250 µg/mL
same,MIC,S. cerevisiae; [4],250 µg/mL
same,MIC,A. niger; [5],500 µg/mL
same,MIC,P. chrysogenum; [6],250 µg/mL
O=C(NC1CCCCC1)N1CN2CN(C/C=C\Cl)CN(C2)C1 [Example 3 h)],MIC,S. aureus,75 µg/mL
same,MIC,S. typhosa,25 µg/mL
same,MIC,A. aerogenes; [1],50 µg/mL
same,MIC,P. aeruginosa; [2],50 µg/mL
same,MIC,C. pelliculosa; [3],250 µg/mL
same,MIC,S. cerevisiae; [4],250 µg/mL
same,MIC,A. niger; [5],500 µg/mL
same,MIC,P. chrysogenum; [6],250 µg/mL
Cc1ccc(S(=O)(=O)NC(=O)N2CN3CN(C/C=C\Cl)CN(C3)C2)cc1 [Example 3 i)],MIC,S. aureus,250 µg/mL
same,MIC,S. typhosa,50 µg/mL
same,MIC,A. aerogenes; [1],250 µg/mL
same,MIC,P. aeruginosa; [2],500 µg/mL
same,MIC,C. pelliculosa; [3],500 µg/mL
same,MIC,S. cerevisiae; [4],500 µg/mL
same,MIC,A. niger; [5],> 500 µg/mL
same,MIC,P. chrysogenum; [6],500 µg/mL
S=C(Nc1ccc(Cl)cc1)N1CN2CN(C/C=C\Cl)CN(C2)C1 [Example 3 j)],MIC,S. aureus,75 µg/mL
same,MIC,S. typhosa,50 µg/mL
same,MIC,A. aerogenes; [1],75 µg/mL
same,MIC,P. aeruginosa; [2],100 µg/mL
same,MIC,C. pelliculosa; [3],250 µg/mL
same,MIC,S. cerevisiae; [4],250 µg/mL
same,MIC,A. niger; [5],250 µg/mL
same,MIC,P. chrysogenum; [6],100 µg/mL
S=C(Nc1ccc(Br)cc1)N1CN2CN(C/C=C\Cl)CN(C2)C1 [Example 3 k)],MIC,S. aureus,250 µg/mL
same,MIC,S. typhosa,75 µg/mL
same,MIC,A. aerogenes; [1],100 µg/mL
same,MIC,P. aeruginosa; [2],250 µg/mL
same,MIC,C. pelliculosa; [3],250 µg/mL
same,MIC,S. cerevisiae; [4],500 µg/mL
same,MIC,A. niger; [5],500 µg/mL
same,MIC,P. chrysogenum; [6],250 µg/mL
S=C(Nc1ccc(Cl)c(Cl)c1)N1CN2CN(C/C=C\Cl)CN(C2)C1 [Example 3 l)],MIC,S. aureus,50 µg/mL
same,MIC,S. typhosa,75 µg/mL
same,MIC,A. aerogenes; [1],100 µg/mL
same,MIC,P. aeruginosa; [2],100 µg/mL
same,MIC,C. pelliculosa; [3],250 µg/mL
same,MIC,S. cerevisiae; [4],250 µg/mL
same,MIC,A. niger; [5],250 µg/mL
same,MIC,P. chrysogenum; [6],100 µg/mL
Cc1ccc(NC(=S)N2CN3CN(C/C=C\Cl)CN(C3)C2)cc1C [Example 3 m)],MIC,S. aureus,50 µg/mL
same,MIC,S. typhosa,50 µg/mL
same,MIC,A. aerogenes; [1],75 µg/mL
same,MIC,P. aeruginosa; [2],100 µg/mL
same,MIC,C. pelliculosa; [3],250 µg/mL
same,MIC,S. cerevisiae; [4],250 µg/mL
same,MIC,A. niger; [5],250 µg/mL
same,MIC,P. chrysogenum; [6],100 µg/mL
CCCCNC(=O)N1CN2CN(C/C=C\Cl)CN(C2)C1 [Example 3 n)],MIC,S. aureus,50 µg/mL
same,MIC,S. typhosa,25 µg/mL
same,MIC,A. aerogenes; [1],50 µg/mL
same,MIC,P. aeruginosa; [2],75 µg/mL
same,MIC,C. pelliculosa; [3],250 µg/mL
same,MIC,S. cerevisiae; [4],250 µg/mL
same,MIC,A. niger; [5],250 µg/mL
same,MIC,P. chrysogenum; [6],250 µg/mL
CCCCNC(=S)N1CN2CN(C/C=C\Cl)CN(C2)C1 [Example 3 o)],MIC,S. aureus,100 µg/mL
same,MIC,S. typhosa,75 µg/mL
same,MIC,A. aerogenes; [1],100 µg/mL
same,MIC,P. aeruginosa; [2],250 µg/mL
same,MIC,C. pelliculosa; [3],> 500 µg/mL
same,MIC,S. cerevisiae; [4],500 µg/mL
same,MIC,A. niger; [5],500 µg/mL
same,MIC,P. chrysogenum; [6],500 µg/mL

# From USRE29225E, “N-substituted derivatives of 3-carboxamide and 3-thiocarboxamide” (The Dow Chemical Company, priority 1976, dated 1977)
